Assay results published in ChEMBL document CHEMBL1201862, “PubChem BioAssay data set” (2004).
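Assay format: 96-well plates, 48-hour exposure. GI50 is the concentration that inhibits growth by half.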 The source made the active and inactive calls. Rule as the data show it: active = GI50 up to about 1.1 µM and inactive = higher.

Columns and labels:
Assay in all cases: NCI anticancer screen, dose series, 48 h
LOX IMVI = system: LOX IMVI
PC-3 = system: PC-3
KM12 = system: KM12
SK-MEL-5 = system: SK-MEL-5
RPMI-8226 = system: RPMI-8226
HCC 2998 = system: HCC 2998
SK-OV-3 = system: SK-OV-3
HOP-62 = system: HOP-62
SNB-75 = system: SNB-75
HCT-15 = system: HCT-15
MDA-MB-231 = system: MDA-MB-231
NCI/ADR-RES = system: NCI/ADR-RES
SN12C = system: SN12C
OVCAR-3 = system: OVCAR-3
CCRF-CEM = system: CCRF-CEM
NCI-H23 = system: NCI-H23
786-0 = system: 786-0
MDA-MB-435 = system: MDA-MB-435
HL-60 = system: HL-60
HOP-92 = system: HOP-92

Compound	GI50 (LOX IMVI)	GI50 (PC-3)	GI50 (KM12)	GI50 (SK-MEL-5)	GI50 (RPMI-8226)	GI50 (HCC 2998)	GI50 (SK-OV-3)	GI50 (HOP-62)	GI50 (SNB-75)	GI50 (HCT-15) [µM]	GI50 (MDA-MB-231)	GI50 (NCI/ADR-RES)	GI50 (SN12C)	GI50 (OVCAR-3)	GI50 (CCRF-CEM)	GI50 (NCI-H23)	GI50 (786-0)	GI50 (MDA-MB-435)	GI50 (HL-60)	GI50 (HOP-92)
NC(=S)N1N=C2c3ccccc3CCC[C@H]2[C@@H]1c1ccccc1	1.59 µM (inactive)	1.1 µM (active)	0.693 µM (active)	0.664 µM (active)	0.824 µM (active)	1.99 µM (inactive)	0.427 µM (active)	2.2 µM (inactive)	0.211 µM (active)	1.29	0.513 µM (active)	0.348 µM (active)	2.52 µM (inactive)	0.661 µM (active)	0.528 µM (active)	1.84 µM (inactive)	1.01 µM (active)	0.0977 µM (active)	0.589 µM (active)	–
Cc1cnc2c(c1)C(=O)N(c1ccc(Br)cc1)S2(=O)=O	> 100 µM (inactive)	> 100 µM (inactive)	> 100 µM (inactive)	> 100 µM (inactive)	> 100 µM (inactive)	> 100 µM (inactive)	> 100 µM (inactive)	50.5 µM (inactive)	37.3 µM (inactive)	> 100	> 100 µM (inactive)	> 100 µM (inactive)	> 100 µM (inactive)	> 100 µM (inactive)	> 100 µM (inactive)	> 100 µM (inactive)	> 100 µM (inactive)	> 100 µM (inactive)	30.1 µM (inactive)	–
O=C(NC(=S)Nc1ccc(Br)cc1)c1ccc2c(c1)Sc1ccccc1S2	23.3 µM (inactive)	47.8 µM (inactive)	23.8 µM (inactive)	51.1 µM (inactive)	–	–	16.7 µM (inactive)	16.1 µM (inactive)	15 µM (inactive)	38	17.6 µM (inactive)	24.2 µM (inactive)	18.8 µM (inactive)	20.3 µM (inactive)	16.5 µM (inactive)	21.5 µM (inactive)	16.2 µM (inactive)	94.4 µM (inactive)	17.5 µM (inactive)	15.8 µM (inactive)
CC(=O)OC1CCC2(C)C(=CCC3C2CCC2(C)C(C(C)C(=O)O)CCC32)C1 (stereo not given)	> 100 µM (inactive)	> 100 µM (inactive)	84.7 µM (inactive)	70.6 µM (inactive)	> 100 µM (inactive)	57 µM (inactive)	> 100 µM (inactive)	> 100 µM (inactive)	> 100 µM (inactive)	78.5	> 100 µM (inactive)	> 100 µM (inactive)	> 100 µM (inactive)	> 100 µM (inactive)	> 100 µM (inactive)	> 100 µM (inactive)	> 100 µM (inactive)	> 100 µM (inactive)	–	> 100 µM (inactive)
CC(=O)Nc1ccc(OC2=CCN(C)CC2)cc1	> 100 µM (inactive)	> 100 µM (inactive)	> 100 µM (inactive)	> 100 µM (inactive)	> 100 µM (inactive)	> 100 µM (inactive)	> 100 µM (inactive)	> 100 µM (inactive)	> 100 µM (inactive)	> 100	> 100 µM (inactive)	> 100 µM (inactive)	> 100 µM (inactive)	> 100 µM (inactive)	> 100 µM (inactive)	> 100 µM (inactive)	> 100 µM (inactive)	> 100 µM (inactive)	> 100 µM (inactive)	–
NC(=O)NC(=O)c1cccc(CNc2ccc(C(=O)N[C@@H](CCC(=O)O)C(=O)O)cc2)n1	> 100 µM (inactive)	> 100 µM (inactive)	> 100 µM (inactive)	> 100 µM (inactive)	> 100 µM (inactive)	> 100 µM (inactive)	> 100 µM (inactive)	–	–	> 100	> 100 µM (inactive)	> 100 µM (inactive)	> 100 µM (inactive)	> 100 µM (inactive)	–	> 100 µM (inactive)	> 100 µM (inactive)	> 100 µM (inactive)	> 100 µM (inactive)	> 100 µM (inactive)
Cc1nn(-c2ccccc2)c(C)c1/C=N/NC(=O)c1sc(=S)n(-c2ccc(Cl)cc2)c1N	3.27 µM (inactive)	4.07 µM (inactive)	8.3 µM (inactive)	4.03 µM (inactive)	2.67 µM (inactive)	18.8 µM (inactive)	3.87 µM (inactive)	6.44 µM (inactive)	1.48 µM (inactive)	6.56	5.02 µM (inactive)	6.21 µM (inactive)	12.2 µM (inactive)	60.3 µM (inactive)	6.01 µM (inactive)	18.9 µM (inactive)	3.89 µM (inactive)	9.64 µM (inactive)	8.17 µM (inactive)	–
